This note sets out measurements from patent US8603546B2, “Herbal supplement for increased muscle strength and endurance for athletes” (priority 1999, dated 2013).

Assay [1] has as its system athletes. Kind of assay: Strength group: maximum weight lifted in 6 basic exercises by athletes taking galanthamine. It counts as in vivo, human. The text has this: (§1) 30 healthy individuals, both male and female, ages 18-28, are separated into 2 groups, 15 persons each, to observe the changes in their strength and endurance after administration of galanthamine and regular physical training. All subjects are athletes who have exercised regularly in the gym for 1 to 3 years. During the 3 week test period, all subjects train about 4 times a week with a special exercise program for the first week as described below, supplemented with the subjects' own preferred training schedule. Strength and endurance are observed through 6 basic exercises involving the major muscle groups as follows:
10 participants in each group take galanthamine, the other 5 take a placebo. The dosage of galanthamine is 7.5 mg daily taken with a meal 1.5-2 hours before the workout on training days and 5 mg daily on non-training days divided into two equal portions taken in the morning and in the afternoon. 2. The Strength Group. • a. The initial level. Before administration of galanthamine the initial strength level of each subject is determined and is defined as the maximum weight a subject is able to lift in all 6 exercises. • b. The training schedule. The subjects use a split training method, that is they alternate on one day training their chest, back and shoulder muscles (performing exercises #1, 2 and 3, respectively) and the next day train their biceps, triceps and legs (exercises #4, 5 and 6, respectively). The subjects do 5-6 sets in each exercise using a pyramidal principle for increasing their strength, i.e. they start every exercise doing 10-15 repetitions using a middle weight, then increase the weight gradually, being able to do fewer repetitions, until the maximum weight they are able to lift for one repetition with difficulty is reached. 2 sets are then performed using the same or 5-10% less weight. This maximum weight is considered the “record for the day”, and is compared to the initial level. • c. The results. An increase in strength is observed almost immediately after administration of galanthamine. […]

For assay [2], the system named is athletes. Kind of assay: Endurance group: maximum repetitions in 6 basic exercises by athletes taking galanthamine. It counts as in vivo, human. Particulars: vs initial level.
Source text: as §1
10 participants in each group take galanthamine, the other 5 take a placebo. The dosage of galanthamine is 7.5 mg daily taken with a meal 1.5-2 hours before the workout on training days and 5 mg daily on non-training days divided into two equal portions taken in the morning and in the afternoon. 2. The Strength Group. • a. The initial level. Before administration of galanthamine the initial strength level of each subject is determined and is defined as the maximum weight a subject is able to lift in all 6 exercises. • b. The training schedule. […]

Each structure is given as a SMILES string.

In the case of `COc1ccc2c3c1O[C@H]1C[C@@H](O)C=C[C@@]31CCN(C)C2` [galanthamine], the “average increase in strength” value in the assay with athletes [1] (after 1 week, 7.5 mg daily on training days, 5 mg daily on non-training days, vs initial level) is given as 4-7%. Moreover, the “total increase in strength” value in the assay with athletes [1] (by the third week, 7.5 mg daily on training days, 5 mg daily on non-training days, vs initial level) is given as 10-13%. Moreover, in the assay on athletes [1] (continued galanthamine for up to 3 months, during the entire period), the “increase in strength reported by athletes” value is “over 20%”. For the same compound, the average endurance increase in the assay with athletes [2] (after the first week, 7.5 mg daily on training days, 5 mg daily on non-training days) was 11%; in the assay with athletes [2] (end of the trial, after 3 weeks of treatment) it was 24%.
